Key:
[1] = tested on: L. infantum promastigotes; test: Morphological differentiation of Leishmania promastigotes; type: cell-based, Leishmania infantum; details: 50 ng/mL, 23 °C, 48 h (Figure 6)
Procedure: L. infantum promastigotes were diluted in complete medium to 4 × 10^7 parasites/mL and 250 µL of the suspension were seeded into the 24 wells plates and incubated at 23 °C in the presence of geldanamycin, CE or compound 2 at the final concentration of 50 ng/mL. Cultures without drugs incubated at 23 °C or at 37 °C were used as negative and positive control, respectively. After 24 or 48 h of incubation, parasite morphology was evaluated by optical microscopy at 100× (Eclipse Ti Series, Nikon, Minato, Tokyo, Japan) on Giemsa stained smears (a mixture of eosin, methylene blue and Azure-B diluted 1:10). The percent of round promastigotes in treated and non-treated cells was determined. Images were taken at the same magnification by using a digital camera (Nikon Digital Sight). About 500 promastigotes were counted in 4 random fields.
The compounds were incubated (23 °C, physiological pH) with L. infantum promastigotes at a sub-IC50 concentration of 50 ng/mL. […] After 24 h and 48 h the presence of round, amastigote-like cells, was monitored (Figure 6). A negative and positive control experiment (NC and PC, Figure 6a,b) were also conducted growing the promastigotes at 23 °C and 37 °C, respectively.

L. infantum amastigotes = test: Antileishmanial activity on intramacrophage amastigotes of L. infantum; type: cell-based, Leishmania infantum; details: Leishmania infantum; infected THP-1 macrophages, 72 h
Procedure: Cell monolayers were then washed and incubated in the presence of test compounds for 72 h. Slides were fixed with methanol and stained with Giemsa. The percentage of infected macrophages in treated and non-treated cells was determined by light microscopy.

BMDM = test: Cytotoxicity on BMDM (MTT); type: cell-based, mouse; details: Mus musculus, BMDM; 72 h, MTT; read-out: Healthy Cell Lines IC50, BMDM
Procedure: Cytotoxicity was evaluated on human microvascular endothelial cells (HMEC-1, provided by the Centers for Disease Control, Atlanta, GA, USA), on immortalized mouse C57Bl/6 bone marrow derived macrophages (BMDM) from wild type lineage (generated in the laboratories of Drs. Douglas Golenbock and Kate Fitzgerald, University of Massachusetts, Worcester, MA, USA) and on a human acute monocytic leukaemia cell line (THP-1).
HMEC-1 were maintained in MCDB 131 medium (Invitrogen, Milan, Italy) supplemented with 10% fetal calf serum (HyClone), 10 ng/mL of epidermal growth factor, 1 μg/mL of hydrocortisone, 2 mM glutamine and 20 mM HEPES buffer, at 37 °C in 5% CO2. BMDM were maintained in DMEM (Euroclone) medium supplemented with 10% fetal bovine serum (HyClone, Celbio, Milan, Italy), 2 mM glutamine, and 25 mM of HEPES buffer solution (Euroclone). THP-1 were maintained in RPMI supplemented with 10% heat-inactivated FCS, 50 µM 2-mercaptoethanol, 10 µM sodium pyruvate, 20 mM HEPES, and 2 mM glutamine. In order to achieve differentiation into macrophages, cells were treated with 10 ng/mL phorbol myristate acetate (PMA) for 72 h.
For the cytotoxicity assay, cells were seeded in 96 well flat bottom tissue culture clusters (Costar, New York, NY, USA) at the following concentrations: HMEC 10^5 cell/mL, BMDM at 10^6 cell/mL, THP1 at 5 × 10^5 cell/mL. After 24 h, cells were treated with serial dilutions of test compounds in a final volume of 200 µL/well. Cell proliferation was evaluated after 72 h using the MTT assay.
The absorbances were measured with a microplate spectrophotometer (Synergy 4-Biotek) at a test wavelength of 550 nm and a reference wavelength of 650 nm. The results are expressed as IC50 as the concentration inhibiting 50% of cell growth. Each IC50 value is the mean and standard deviation of at least three separate experiments performed in duplicate.

LbHsp90 = LbHsp90 (Leishmania braziliensis, UniProt A4HL70); test: LbHsp90 ATPase kinetics (NADH-coupled enzymatic cascade); type: biochemical; details: for LbHsp90 Inhibition (%): compound 50 μM, 3.5 μM LbHsp90, 1 mM ATP; for inhibition at 50 µM: read-out: LbHsp90 Inhibition (%), compound 50 μM, 3.5 μM LbHsp90, 1 mM ATP
Chain of LbHsp90 (A4HL70 entry or part of it): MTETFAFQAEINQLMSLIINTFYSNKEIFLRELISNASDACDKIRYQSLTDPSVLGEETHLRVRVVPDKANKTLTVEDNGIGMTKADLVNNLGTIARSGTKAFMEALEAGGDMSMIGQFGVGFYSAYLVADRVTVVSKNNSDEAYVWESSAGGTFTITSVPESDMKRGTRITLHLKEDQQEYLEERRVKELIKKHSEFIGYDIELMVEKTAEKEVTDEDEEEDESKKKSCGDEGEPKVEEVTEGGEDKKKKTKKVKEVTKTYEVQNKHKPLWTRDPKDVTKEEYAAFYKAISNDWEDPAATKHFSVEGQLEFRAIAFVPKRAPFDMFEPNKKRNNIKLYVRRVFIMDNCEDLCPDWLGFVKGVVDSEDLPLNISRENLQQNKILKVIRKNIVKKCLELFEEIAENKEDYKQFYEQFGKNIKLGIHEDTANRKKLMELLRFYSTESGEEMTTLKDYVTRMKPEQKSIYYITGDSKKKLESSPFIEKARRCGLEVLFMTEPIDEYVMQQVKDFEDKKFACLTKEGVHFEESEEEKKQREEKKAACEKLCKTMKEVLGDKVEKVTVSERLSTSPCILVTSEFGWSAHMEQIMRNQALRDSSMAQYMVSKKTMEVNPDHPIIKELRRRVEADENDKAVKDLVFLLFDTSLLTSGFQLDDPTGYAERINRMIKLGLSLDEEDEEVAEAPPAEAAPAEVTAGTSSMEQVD
Procedure: The reaction was initiated by the addition of ATP (1 mM) and absorbance changes at 346 nm were monitored for 30 min at 30 °C.
Native LbHsp90 kinetics was measured as described but in the absence of DMSO. Two control experiments were run as follows: • (1) Efficiency of the enzymatic cascade by the used compounds: HEPES buffer (20 mM, pH 7.5) containing KCl (100 mM), MgCl2 (1 mM), ADP (1 mM), NADH (0.18 mM), L-lactate dehydrogenase (4 U mL^−1), phosphoenolpyruvate (1 mM), pyruvate kinase (2.5 U mL^−1); • (2) Interference of the tested compound(s) with the enzymatic cascade: HEPES buffer (20 mM, pH 7.5) containing KCl (100 mM), MgCl2 (1 mM), ADP (1 mM), NADH (0.18 mM), L-lactate dehydrogenase (4 U mL^−1), phosphoenolpyruvate (1 mM), pyruvate kinase (2.5 U mL^−1) and 50 μM compound.
Accordingly, an in vitro assay developed for the evaluation of non-competitive allosteric modulators, which exploits ATPase kinetics data, was used. Briefly, the decrease in absorbance deriving from the continuous oxidation of NADH to NAD^+ produced by a multi-enzymatic cascade triggered by LbHp90-catalyzed ATP hydrolysis is followed spectrophotometrically over the course of 15 min (for details see Appendix B). All the experiments were normalized using the native ATPase activity of LbHsp90 measured in the presence of DMSO, the co-solvent selected for compounds solubilization.
Figure A1 Enzymatic cascade reactions to spectroscopically evaluate L. Hsp90 ATPase kinetics. The ADP produced by ATP hydrolysis during the chaperone cycle reacts with PEP (phosphoenolpyruvate) to form pyruvate in a reaction catalyzed by the enzyme pyruvate kinase (PK), whereby ATP is regenerated. Pyruvate then continues the cascade process and is reduced to lactic acid by action of lactate dehydrogenase (LDH), whereby NADH is oxidized to NAD^+.
LbHsp90 inhibition (%) = (1 − k/knative) * 100 k = ΔAbs/min = extrapolated apparent kinetic constant (Abs/min)

Row | SMILES | IC50 (L. infantum amastigotes) [nM] | melting point [°C] | round amastigote-like cells (morphological differentiation) [1] | IC50 (BMDM) [nM] | LbHsp90 Inhibition (%) (LbHsp90) | inhibition at 50 µM (LbHsp90) [%]
1 | CC1=C(O)C(=O)C=C2C1=CC=C1[C@@]2(C)CC[C@@]2(C)[C@@H]3C[C@](C)(C(=O)NCC45CCCN4CCC5)CC[C@]3(C)CC[C@]12C [compound 5, (2R,4aS,6aS,12bR,14aS,14bR)-N-((hexahydro-1H-pyrrolizin-7a-yl)methyl)-10-hydroxy-2,4a,6a,9,12b,14a-hexamethyl-11-oxo-1,2,3,4,4a,5,6,6a,11,12b,13,14,14a,14b-tetradecahydropicene-2-carboxamide] | 520 ± 280 | 250.8 to 254.7 |  | 2680 ± 810 |  | 
2 | CC1=C(O)C(=O)C=C2C1=CC=C1[C@@]2(C)CC[C@@]2(C)[C@@H]3C[C@](C)(C(=O)NCCSS(C)(=O)=O)CC[C@]3(C)CC[C@]12C [compound 9, S-(2-((2R,4aS,6aS,12bR,14aS,14bR)-10-hydroxy-2,4a,6a,9,12b,14a-hexamethyl-11-oxo-1,2,3,4,4a,5,6,6a,11,12b,13,14,14a,14b-tetradecahydropicene-2-carboxamido)ethyl) methanesulfonothioate] |  |  |  | 13000 ± 2480 |  | 
3 | CC1=C(O)C(=O)C=C2C1=CC=C1[C@@]2(C)CC[C@@]2(C)[C@@H]3C[C@](C)(C(=O)O)CC[C@]3(C)CC[C@]12C [CE, celastrol] |  |  | neither CE nor compound 3 produced this effect | 1760 ± 430 | 28.9 ± 5.4 | 30

Second part, led by results:

Row | IC50 (L. infantum amastigotes) [nM] | melting point [°C] | SMILES | round amastigote-like cells (morphological differentiation) [1] | IC50 (BMDM) [nM] | LbHsp90 Inhibition (%) (LbHsp90) | inhibition at 50 µM (LbHsp90) [%]
4 | 130 ± 90 | 135.6 to 138 | CC1=C(O)C(=O)C=C2C1=CC=C1[C@@]2(C)CC[C@@]2(C)[C@@H]3C[C@](C)(C(=O)NCCN4CCCC4)CC[C@]3(C)CC[C@]12C [compound 3, (2R,4aS,6aS,12bR,14aS,14bR)-10-hydroxy-2,4a,6a,9,12b,14a-hexamethyl-11-oxo-N-(2-(pyrrolidin-1-yl)ethyl)-1,2,3,4,4a,5,6,6a,11,12b,13,14,14a,14b-tetradecahydropicene-2-carboxamide] | neither CE nor compound 3 produced this effect | 4530 ± 50 | 97.8 ± 1.2 | 95
5 | 190 ± 110 | 137 to 138.6 | CC1=C(O)C(=O)C=C2C1=CC=C1[C@@]2(C)CC[C@@]2(C)[C@@H]3C[C@](C)(C(=O)NCCN4CCCCC4)CC[C@]3(C)CC[C@]12C [compound 1, (2R,4aS,6aS,12bR,14aS,14bR)-10-hydroxy-2,4a,6a,9,12b,14a-hexamethyl-11-oxo-N-(2-(piperidin-1-yl)ethyl)-1,2,3,4,4a,5,6,6a,11,12b,13,14,14a,14b-tetradecahydropicene-2-carboxamide] |  | 3610 ± 380 |  | 
6 | 660 ± 60 | 165.7 to 167.9 | CC1=C(O)C(=O)C=C2C1=CC=C1[C@@]2(C)CC[C@@]2(C)[C@@H]3C[C@](C)(C(=O)NCCNc4ccnc5cc(Cl)ccc45)CC[C@]3(C)CC[C@]12C [compound 6, (2R,4aS,6aS,12bR,14aS,14bR)-N-(2-((7-chloroquinolin-4-yl)amino)ethyl)-10-hydroxy-2,4a,6a,9,12b,14a-hexamethyl-11-oxo-1,2,3,4,4a,5,6,6a,11,12b,13,14,14a,14b-tetradecahydropicene-2-carboxamide] |  | 2150 ± 20 |  | 
